Measurements taken from PubChem BioAssay AID330 (DTP/NCI, 2004).
Where “and” joins values, the source holds several entries; their conditions need not be identical. Equal values may be shown once. Inconclusive results and toxic doses are left out. Rule for the calls: active = survival T/C of 150% or more; inactive = T/C below 125% in these data.

Test system: P388 leukemia ip, CD2F1 mice, survival T/C
Test: NCI In Vivo Anticancer Drug Screen. Data for tumor model P388 Leukemia (intraperitoneal) in CD2F1 (CDF1) mice
Conditions: endpoint: median survival time, higher = longer survival
In short: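 Mice carrying the transplanted tumor received test compound or vehicle. Survival was recorded in each group, and the value is the treated-group measurement divided by that of the vehicle-treated control group.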

[1] = dose: 50.0 mg/kg/injection, schedule: Q01DX005 (ip), vehicle: Klucel (hydroxypropylcellulose) (HPC)
[2] = dose: 100.0 mg/kg/injection, schedule: Q01DX005 (ip), vehicle: Klucel (hydroxypropylcellulose) (HPC)
[3] = dose: 200.0 mg/kg/injection, schedule: Q01DX005 (ip), vehicle: Klucel (hydroxypropylcellulose) (HPC)
[4] = dose: 50.0 mg/kg/injection, schedule: Q01DX009 (ip), vehicle: saline
[5] = dose: 100.0 mg/kg/injection, schedule: Q01DX009 (ip), vehicle: saline
[6] = dose: 200.0 mg/kg/injection, schedule: Q01DX009 (ip), vehicle: saline
[7] = dose: 25.0 mg/kg/injection, schedule: Q01DX009 (ip), vehicle: saline with Tween-80
[8] = dose: 50.0 mg/kg/injection, schedule: Q01DX009 (ip), vehicle: saline with Tween-80
[9] = dose: 100.0 mg/kg/injection, schedule: Q01DX009 (ip), vehicle: saline with Tween-80
[10] = dose: 200.0 mg/kg/injection, schedule: Q01DX009 (ip), vehicle: saline with Tween-80
[11] = dose: 50.0 mg/kg/injection, schedule: Q01DX005 (ip), vehicle: saline

Measured: T/C

O=C(O)Cc1noc2ccccc12
inactive: dose: 25.0 mg/kg/injection, schedule: Q04DX003 (ip), vehicle: Klucel (hydroxypropylcellulose) (HPC) 92 % of control | dose: 50.0 mg/kg/injection, schedule: Q04DX003 (ip), vehicle: Klucel (hydroxypropylcellulose) (HPC) 91 % of control | dose: 100.0 mg/kg/injection, schedule: Q04DX003 (ip), vehicle: Klucel (hydroxypropylcellulose) (HPC) 91 % of control | dose: 200.0 mg/kg/injection, schedule: Q04DX003 (ip), vehicle: Klucel (hydroxypropylcellulose) (HPC) 90 % of control

COc1ccc2c(C)cc(N/N=C/c3cccc(C)n3)nc2c1
inactive: [1] 98 % of control and 104 % of control and 93 % of control | [2] 105 % of control and 109 % of control and 110 % of control | [3] 104 % of control and 116 % of control and 124 % of control

CCN1C(=O)C(=C2C=C(c3ccccc3)C(C#N)(c3ccccc3)C(c3ccccc3)=C2)C(=O)N(CC)C1=S (stereo unspecified)
inactive: [1] 99 % of control | [2] 97 % of control | [3] 98 % of control

Cc1nn(-c2ccccc2)c2c1c(=O)c1ccccc1c(=O)n2C
inactive: [1] 105 % of control | [2] 104 % of control | [3] 94 % of control

CCOC(=O)c1ccc2nc(/N=C/c3ccccc3Cl)sc2c1
inactive: [4] 105 % of control | [5] 108 % of control | [6] 105 % of control

CCC(C)n1c(=O)cc(C)[nH]c1=O (stereo unspecified)
inactive: [4] 101 % of control | [5] 98 % of control | [6] 104 % of control

Cc1ccccc1-c1nc2cc(Cl)ccc2c(=O)o1
inactive: [7] 105 % of control | [8] 110 % of control | [9] 110 % of control

CN(C)C1C(=O)C(C(N)=O)=C(O)C2(O)C(=O)C3=C(O)c4c(O)cccc4C(C)(O)C3CC12 (stereo unspecified)
inactive: dose: 25.0 mg/kg/injection, schedule: Q01DX005 (ip), vehicle: Klucel (hydroxypropylcellulose) (HPC) 94 % of control | [1] 95 % of control | [2] 95 % of control

C=CCCC/C=C/CN1CCOCC1
inactive: [4] 103 % of control | [5] 105 % of control

CC1(C)CN(c2ccccc2)N(C(=O)C(=O)N2C(=O)C(C)(C)CN2c2ccccc2)C1=O
inactive: dose: 100.0 mg/kg/injection, schedule: Q04DX002 (ip), vehicle: saline 104 % of control | dose: 200.0 mg/kg/injection, schedule: Q04DX002 (ip), vehicle: saline 102 % of control | dose: 400.0 mg/kg/injection, schedule: Q04DX002 (ip), vehicle: saline 100 % of control

CC(=O)NC(CO)C(=O)c1ccc(S(=O)(=O)c2ccccc2)cc1 (stereo unspecified)
inactive: [9] 97 % of control | [10] 91 % of control | dose: 400.0 mg/kg/injection, schedule: Q01DX009 (ip), vehicle: saline with Tween-80 94 % of control

CC1=Nc2ccccc2NC(C)(C)C1
inactive: [4] 103 % of control | [5] 100 % of control | [6] 100 % of control

COc1cc2oc(=O)cc(C)c2cc1N
inactive: dose: 50.0 mg/kg/injection, schedule: Q04DX002 (ip), vehicle: suspension in saline 109 % of control | dose: 100.0 mg/kg/injection, schedule: Q04DX002 (ip), vehicle: suspension in saline 99 % of control | dose: 200.0 mg/kg/injection, schedule: Q04DX002 (ip), vehicle: suspension in saline 106 % of control

COc1ccc2c(c1)NC(O)c1cccn1C2=O (stereo unspecified)
inactive: dose: 0.1 mg/kg/injection, schedule: Q01DX005 (ip), vehicle: water 91 % of control | dose: 0.2 mg/kg/injection, schedule: Q01DX005 (ip), vehicle: water 91 % of control | dose: 0.4 mg/kg/injection, schedule: Q01DX005 (ip), vehicle: water 93 % of control | dose: 0.8 mg/kg/injection, schedule: Q01DX005 (ip), vehicle: water 96 % of control | dose: 1.6 mg/kg/injection, schedule: Q01DX005 (ip), vehicle: water 102 % of control | dose: 5.0 mg/kg/injection, schedule: Q01DX005 (ip), vehicle: distilled water + Tween-80 100 % of control | dose: 10.0 mg/kg/injection, schedule: Q01DX005 (ip), vehicle: distilled water + Tween-80 94 % of control | dose: 20.0 mg/kg/injection, schedule: Q01DX005 (ip), vehicle: distilled water + Tween-80 100 % of control | dose: 40.0 mg/kg/injection, schedule: Q01DX005 (ip), vehicle: distilled water + Tween-80 95 % of control | dose: 80.0 mg/kg/injection, schedule: Q01DX005 (ip), vehicle: distilled water + Tween-80 91 % of control

CC(=O)[OH+]c1c(Br)cc(Br)cc1C(=O)[O-].CC(=O)[OH+]c1c(Br)cc(Br)cc1C(=O)[O-].[Cu+2]
inactive: dose: 12.5 mg/kg/injection, schedule: Q01DX005 (ip), vehicle: saline with Tween-80 101 % of control | dose: 25.0 mg/kg/injection, schedule: Q01DX005 (ip), vehicle: saline with Tween-80 100 % of control | [11] 102 % of control

CC(=O)N1CCc2cc([N+](=O)[O-])cc(Br)c21
inactive: dose: 12.5 mg/kg/injection, schedule: Q01DX009 (ip), vehicle: distilled water + Tween-80 107 % of control | dose: 25.0 mg/kg/injection, schedule: Q01DX009 (ip), vehicle: distilled water + Tween-80 98 % of control | dose: 50.0 mg/kg/injection, schedule: Q01DX009 (ip), vehicle: distilled water + Tween-80 91 % of control | dose: 100.0 mg/kg/injection, schedule: Q01DX009 (ip), vehicle: distilled water + Tween-80 98 % of control | dose: 200.0 mg/kg/injection, schedule: Q01DX009 (ip), vehicle: distilled water + Tween-80 91 % of control

CCCCN(CCCC)CC(CN(CC)CC)N(CC)C(=O)Nc1ccccc1 (stereo unspecified)
inactive: dose: 12.5 mg/kg/injection, schedule: Q01DX005 (ip), vehicle: saline 94 % of control | dose: 25.0 mg/kg/injection, schedule: Q01DX005 (ip), vehicle: saline 93 % of control | [11] 102 % of control and 94 % of control

CC1=CC(=O)C(c2ccc(O)cc2O)=CC1=O
inactive: dose: 2.5 mg/kg/injection, schedule: Q01DX009 (ip), vehicle: saline with Tween-80 100 % of control | dose: 5.0 mg/kg/injection, schedule: Q01DX009 (ip), vehicle: saline with Tween-80 95 % of control | dose: 10.0 mg/kg/injection, schedule: Q01DX009 (ip), vehicle: saline with Tween-80 86 % of control

CC1(C)c2ccccc2-c2nc3ccccc3cc2C1N1CCOCC1 (stereo unspecified)
inactive: dose: 50.0 mg/kg/injection, schedule: Q01DX005 (ip), vehicle: saline with Tween-80 92 % of control | dose: 100.0 mg/kg/injection, schedule: Q01DX005 (ip), vehicle: saline with Tween-80 104 % of control | dose: 200.0 mg/kg/injection, schedule: Q01DX005 (ip), vehicle: saline with Tween-80 101 % of control

CSc1cccc(NC(=O)OCCOc2ccccc2Cl)c1
inactive: [8] 105 % of control | [9] 101 % of control | [10] 100 % of control

COc1cc2c(cc1O)C(=O)CCC=C2
inactive: [8] 103 % of control | [9] 101 % of control | [10] 108 % of control

CC(C)(O)c1ccccc1Sc1ccccc1C(C)(C)O
inactive: dose: 100.0 mg/kg/injection, schedule: Q01DX001 (ip), vehicle: saline with Tween-80 102 % of control | dose: 200.0 mg/kg/injection, schedule: Q01DX001 (ip), vehicle: saline with Tween-80 103 % of control | dose: 400.0 mg/kg/injection, schedule: Q01DX001 (ip), vehicle: saline with Tween-80 95 % of control

Cn1c(=O)c2c(CCCC(=O)O)onc2n(C)c1=O
inactive: [7] 96 % of control | [8] 93 % of control | [9] 90 % of control

CSC(/C=C1\C=Cc2ccccc2N1C)=NC#N
inactive: dose: 25.0 mg/kg/injection, schedule: Q04DX002 (ip), vehicle: saline with Tween-80 100 % of control | dose: 50.0 mg/kg/injection, schedule: Q04DX002 (ip), vehicle: saline with Tween-80 106 % of control | dose: 100.0 mg/kg/injection, schedule: Q04DX002 (ip), vehicle: saline with Tween-80 97 % of control
